Data taken from patent publication US12532889B2, “Herbicidal compositions comprising glufosinate” (BASF SE, priority 2023, dated 2026).
Values joined by “and” are separate entries in the source; they are usually repeats but may differ in a detail not shown here. Equal values may be shown once.

How the values were obtained:
Test in all cases: Post-emergence application in field trials (Example A)
Format in all cases: in vivo
[1] = system: DIGSA (Digitaria sanguinalis); details: height 10-15 cm
Description: (§1) In the examples below, using the method of S. R. Colby (1967) “Calculating synergistic and antagonistic responses of herbicide combinations”, Weeds 15, p. 22ff., the value E, which is expected if the activity of the individual active compounds is only additive, was calculated:
(§2) [formula] • where • X=percent activity using active herbicide A at an application rate a; • Y=percent activity using active herbicide B (e.g. glufosinate) at an application rate b; • E=expected activity (in %) by A+B at application rates a+b.
(§3) If the value found experimentally is higher than the value E calculated according to Colby, a synergistic effect is present.
(§4) On field test sites, natural weed infestation or seeded weeds were treated post-emergence of the weeds.
(§5) In the field trials, the weeds were treated as indicated below.
(§6) In the following experiments, the herbicidal activity for the individual herbicidal compositions (solo and mixture applications) was assessed at the indicated days after treatment (DAT). The assessments for the damage on undesired weeds caused by the composition was carried out using a scale from 0 to 100%, compared to the untreated control plants. Here, 0 means no damage and 100 means complete destruction of the plants.

[2] = system: ECHCG (Echinocloa crus-galli); details: growth stage 23-30, height 15-20 cm
Description: as §1, §2, §3, §4, §5, §6

GLXMA (Glycine max) = details: 42 DAT, growth stage 13, height 5-10 cm
Description: as §1, §2, §3, §4, §5, §6

[3] = system: HORVW (Hordeum vulgare (winter barley)); details: growth stage 23-29, height 20-25 cm
Description: as §1, §2, §3, §4, §5, §6

[4] = system: LOLMU (Lolium multiflorum); details: growth stage 22-25, height 20-25 cm
Description: as §1, §2, §3, §4, §5, §6

[5] = system: SETVE (Setaria verticillata); details: 42 DAT; C-4 12.5 g ai/ha; growth stage 21-23; height 8-16 cm
Description: as §1, §2, §3, §4, §5, §6

ZEAMX (Zea mays) = details: C-4 12.5 g ai/ha, growth stage 15-16
Description: as §1, §2, §3, §4, §5, §6

For `C#CCN1C(=O)C(F)(F)Oc2cc(F)c(-n3c(=O)n(C)c(=S)n(C)c3=O)cc21` [C-4, trifludimoxazin], the “% Herbicidal activity” value ([1]; 7 DAT, C-4 12.5 g ai/ha, growth stage 22) was 40%, the “% Herbicidal activity” value ([1]; 21 DAT, C-4 12.5 g ai/ha, growth stage 22) was 40% and the “% Herbicidal activity” value ([1]; 41 DAT, C-4 12.5 g ai/ha, growth stage 22) was 25%. For the same molecule, the “% Herbicidal activity” value ([1]; 42 DAT, C-4 12.5 g ai/ha, growth stage 22) was 25%, the “% Herbicidal activity” value ([2]; 7 DAT, C-4 12.5 g ai/ha) was 40% and the “% Herbicidal activity” value ([2]; 21 DAT, C-4 12.5 g ai/ha) was 20%. The “% Herbicidal activity” value ([2]; 28 DAT, C-4 12.5 g ai/ha) was 40% and 20%, the “% Herbicidal activity” value (GLXMA (Glycine max); C-4 12.5 g ai/ha) was 60% and the “% Herbicidal activity” value ([3]; 7 DAT, C-4 12.5 g ai/ha) was 40% and 30%. For the same molecule, the “% Herbicidal activity” value ([3]; 21 DAT, C-4 12.5 g ai/ha) was 30%, the “% Herbicidal activity” value ([4]; 7 DAT, C-4 12.5 g ai/ha) was 40% and the “% Herbicidal activity” value ([4]; 28 DAT, C-4 12.5 g ai/ha) was 30%. The “% Herbicidal activity” value [5] was 25%, the “% Herbicidal activity” value (ZEAMX (Zea mays); 21 DAT, height 27-33 cm) was 30% and the “% Herbicidal activity” value (ZEAMX (Zea mays); 28 DAT, height 50-60 cm) was 30%. For the same molecule, the “% Herbicidal activity” value (ZEAMX (Zea mays); 42 DAT, height 27-33 cm) was 25% and 20%.

With `CC(C)N(C)S(=O)(=O)NC(=O)c1cc(-n2c(=O)cc(C(F)(F)F)n(C)c2=O)c(F)cc1Cl` [C-1, saflufenacil] the “% Herbicidal activity” value ([1]; 20 DAT, C-1 12.5 g ai/ha, growth stage 21-22) was 20%, the “% Herbicidal activity” value ([2]; 7 DAT, C-1 12.5 g ai/ha) was 20% and the “% Herbicidal activity” value ([2]; 28 DAT, C-1 12.5 g ai/ha) was 20%. For the same molecule, the “% Herbicidal activity” value (GLXMA (Glycine max); C-1 12.5 g ai/ha) was 60%, the “% Herbicidal activity” value ([3]; 7 DAT, C-1 12.5 g ai/ha) was 20% and the “% Herbicidal activity” value ([4]; 7 DAT, C-1 12.5 g ai/ha) was 20%. The “% Herbicidal activity” value ([4]; 28 DAT, C-1 12.5 g ai/ha) was 20%.
